Counter-ions that a name gives are not always drawn.
Key:
Lentinus lepideus = experiment: Filter disk test, Lentinus lepideus; format: cell-based; details: 3 weeks, +30° C.
Experimental: (§1) The inhibition action against fungi, of the products according to the invention, was tested using the "filter disk test" (cf. Table 2). For this purpose, paper filter disks (.phi. 5.5 cm) were soaked in ethanolic solutions containing various amounts of active substance. After the filters had dried under room conditions, they were placed on Petri dishes containing plate-count agar which had been inoculated with a spore suspension. The nutrient medium used was biomalt agar 8° Bg, and the dishes were incubated for 3 weeks at +30° C. Thereafter, the sizes of the inhibition zones (distance of the fungal growth from the edge of the filter, in mm) around the samples were determined.

Bacillus subtilis = experiment: Agar diffusion test, Bacillus subtilis; format: cell-based; details: 0: no inhibition action
Experimental: (§2) DST agar was inoculated with 1 drop of a Muller-Hinton broth of the test organisms, diluted 1 : 10. After a prediffusion period of 2 hours at 22° C., the paper filters which had been soaked with solutions of active substance of various concentrations were placed on the agar. The inhibition zones (distance of the cloudy area from the edge of the paper filter in mm) were determined after an incubation time of 24 hours.

Coniophora puteana = experiment: Wood block test against Coniophora puteana after leaching treatment (DIN 52 176, DIN EN 84); details: lower: highest amount with attack (weight loss>3%); higher: lowest amount without attack; 16 weeks, 22° C.
Source text: To compare the fungicidal action against Basidiomycetes, small blocks made of pine sapwood (5 cm×2.5 cm×1.5 cm, direction of fiber: 5 cm) were soaked with solutions of graduated concentrations of the active substance DBT-HDO (cf. Example 1) in acetone, based on DIN 52 176.
For comparison reasons, the starting materials di-n-butyltin dichloride and the K salt of N-cyclohexyl-N'-hydroxydiazenium oxide were included in the investigations.
The soaked blocks were kept for 4 weeks in an environmentally-controlled chamber at an air temperature of 20° C. and a relative atmospheric humidity of 65%. They were then subjected to a leaching procedure in accordance with DIN EN 84. […] The effect of the fungi on the individual blocks was determined by calculating the weight losses (based on the dry weights). The limits which were determined in this way and which are expressed by two figures, the lower of which being the highest amount of protective agent (in kg/m^3 of wood) at which an attack still took place (weight loss>3%), and the higher denoting the lowest amount from which an attack no longer took place, are listed in Table 3.

Staphilococcus aureaus = experiment: Agar diffusion test, Staphilococcus aureaus; format: cell-based; details: 0: no inhibition action
Experimental: as §2

Proteus vulgaris = experiment: Agar diffusion test, Proteus vulgaris; format: cell-based; details: 0: no inhibition action
Experimental: as §2

Paecilomyces varioti = experiment: Filter disk test, Paecilomyces varioti; format: cell-based; details: 3 weeks, +30° C.
Experimental: as §1

Poria monticola = experiment: Filter disk test, Poria monticola; format: cell-based; details: 3 weeks, +30° C.
Experimental: as §1

Cladosporum herbarum = experiment: Filter disk test, Cladosporum herbarum; format: cell-based; details: 3 weeks, +30° C.
Experimental: as §1

Escherichia coli = experiment: Agar diffusion test, Escherichia coli; format: cell-based; details: 0: no inhibition action
Experimental: as §2

rats = experiment: LD50 oral (rats); format: in vivo
[1] = Weight loss (release) on storage, 6 days at 65° C.; format: physicochemical
Experimental: As shown by the comparison above, the amount released into the environment during a storage period of 6 days at 65° C. of, for example, TBT-HDO, is nearly six times higher than in the case of DBT-HDO according to the invention.

bacteria and fungi = details: prior art; cited from earlier work
Daphnia = experiment: EC50 in Daphnia (DIN 38412, Part 12); format: in vivo
Source text: **Determination in accordance with DIN 38412, Part 12.

Orfes = experiment: EC50 in Orfes (DIN 38412, Part 15); format: in vivo
Source text: *Determination in accordance with DIN 38412, Part 15

[2] = 0.1% active substance in soaking solution
[3] = 0.3% active substance in soaking solution
[4] = 0.5% active substance in soaking solution

## CCC[CH2][Sn]([Cl])([Cl])[CH2]CCC [Di-n-butyltin dichloride]
Lentinus lepideus; 1% content of the solution
  Growth: + +

## [O-][N+](=NO)C1CCCCC1 [K-HDO, potassium salt of N-cyclohexyl-N'-hydroxydiazenium oxide]
Bacillus subtilis; Bacillus subtilis, 24 h, 0.1% active substance in soaking solution
  zone of inhibition at 0.1 % strength: 4 mm
Bacillus subtilis; Bacillus subtilis, 24 h, 0.3% active substance in soaking solution
  zone of inhibition at 0.3 % strength: 4 mm
Bacillus subtilis; Bacillus subtilis, 24 h, 0.5% active substance in soaking solution
  zone of inhibition at 0.5 % strength: 9 mm
Coniophora puteana
  Limits against Coniophora puteana after leaching treatment: 1.8-3.4 kg of product per m^3 of wood
Staphilococcus aureaus; 24 h, 0.1% active substance in soaking solution
  zone of inhibition at 0.1 % strength: 8 mm
Staphilococcus aureaus; 24 h, 0.3% active substance in soaking solution
  zone of inhibition at 0.3 % strength: 14 mm
Staphilococcus aureaus; 24 h, 0.5% active substance in soaking solution
  zone of inhibition at 0.5 % strength: 19 mm
Lentinus lepideus; Neolentinus lepideus, 504 h, 0.5% content of the solution, read-out: inhibition zone (IZ)
  zone of inhibition at 0.5 %: 4 to 6 mm
Lentinus lepideus; Neolentinus lepideus, 504 h, 1% content of the solution, read-out: inhibition zone (IZ)
  zone of inhibition at 1 %: 10 to 12 mm
Lentinus lepideus; Neolentinus lepideus, 504 h, 2% content of the solution, read-out: inhibition zone (IZ)
  zone of inhibition at 2 %: > 15 mm
Proteus vulgaris; Proteus vulgaris, 24 h, 0.1% active substance in soaking solution
  zone of inhibition at 0.1 % strength: 0 mm
Proteus vulgaris; Proteus vulgaris, 24 h, 0.3% active substance in soaking solution
  zone of inhibition at 0.3 % strength: 0 mm
Proteus vulgaris; Proteus vulgaris, 24 h, 0.5% active substance in soaking solution
  zone of inhibition at 0.5 % strength: 0 mm
Paecilomyces varioti; Paecilomyces, 504 h, 0.5% content of the solution, read-out: inhibition zone (IZ)
  zone of inhibition at 0.5 %: 5 to 7 mm
Paecilomyces varioti; Paecilomyces, 504 h, 1% content of the solution, read-out: inhibition zone (IZ)
  zone of inhibition at 1 %: 6 to 8 mm
Paecilomyces varioti; Paecilomyces, 504 h, 2% content of the solution, read-out: inhibition zone (IZ)
  zone of inhibition at 2 %: 8 to 10 mm
Poria monticola; Poria monticola, 504 h, 0.5% content of the solution, read-out: inhibition zone (IZ)
  zone of inhibition at 0.5 %: 2 to 3 mm
Poria monticola; Poria monticola, 504 h, 1% content of the solution, read-out: inhibition zone (IZ)
  zone of inhibition at 1 %: 6 to 8 mm
Poria monticola; Poria monticola, 504 h, 2% content of the solution, read-out: inhibition zone (IZ)
  zone of inhibition at 2 %: 10 to 12 mm
Cladosporum herbarum; 504 h, 0.5% content of the solution, read-out: inhibition zone (IZ)
  zone of inhibition at 0.5 %: 4 to 6 mm
Cladosporum herbarum; 504 h, 1% content of the solution, read-out: inhibition zone (IZ)
  zone of inhibition at 1 %: 8 to 10 mm
Cladosporum herbarum; 504 h, 2% content of the solution, read-out: inhibition zone (IZ)
  zone of inhibition at 2 %: 10 to 12 mm
Escherichia coli; Escherichia coli, 24 h, 0.1% active substance in soaking solution
  zone of inhibition at 0.1 % strength: 0 mm
Escherichia coli; Escherichia coli, 24 h, 0.3% active substance in soaking solution
  zone of inhibition at 0.3 % strength: 0 mm
Escherichia coli; Escherichia coli, 24 h, 0.5% active substance in soaking solution
  zone of inhibition at 0.5 % strength: 0 mm

## CCC[CH2][Sn]([CH2]CCC)([CH2]CCC)[O]N(N=O)C1CCCCC1 [TBT-HDO]
rats
  LD50 oral (rats): 63 mg/kg of body wt.
Bacillus subtilis; [2]
  inhibition zone: 17 mm
Bacillus subtilis; [3]
  inhibition zone: 22 mm
Bacillus subtilis; [4]
  inhibition zone: 18 mm
[1]; 6 days 65° C.
  Weight loss: 12.8%
[1]; storage 6 days at 65° C., TBT-HDO vs DBT-HDO
  amount released into the environment, times higher than DBT-HDO: six
Bacteria and fungi
  biocidal activity: very good biocidal activity
Staphilococcus aureaus; [2]
  inhibition zone: 28 mm
Staphilococcus aureaus; [3]
  inhibition zone: 32 mm
Staphilococcus aureaus; [4]
  inhibition zone: 24 mm
Lentinus lepideus; 0.5% content of the solution
  inhibition zone (IZ): > 15 mm
Lentinus lepideus; 1% content of the solution
  inhibition zone (IZ): > 15 mm
Lentinus lepideus; 2% content of the solution
  inhibition zone (IZ): > 15 mm
Proteus vulgaris; [2]
  inhibition zone: 6 mm
Proteus vulgaris; [3]
  inhibition zone: 7 mm
Proteus vulgaris; [4]
  inhibition zone: 7 mm
Paecilomyces varioti; 0.5% content of the solution
  inhibition zone (IZ): 10-12 mm
Paecilomyces varioti; 1% content of the solution
  inhibition zone (IZ): > 15 mm
Paecilomyces varioti; 2% content of the solution
  inhibition zone (IZ): > 15 mm
Poria monticola; 0.5% content of the solution
  inhibition zone (IZ): 7-9 mm
Poria monticola; 1% content of the solution
  inhibition zone (IZ): 15 mm
Poria monticola; 2% content of the solution
  inhibition zone (IZ): 15 mm
Cladosporum herbarum; 0.5% content of the solution
  inhibition zone (IZ): 10-12 mm
Cladosporum herbarum; 1% content of the solution
  inhibition zone (IZ): > 15 mm
Cladosporum herbarum; 2% content of the solution
  inhibition zone (IZ): > 15 mm
Daphnia
  EC50 in Daphnia: 0.020 mg/l of water
Orfes
  EC50 in Orfes: 0.035 mg/l of water
Escherichia coli; [2]
  inhibition zone: 0 mm
Escherichia coli; [3]
  inhibition zone: 0 mm
Escherichia coli; [4]
  inhibition zone: 0 mm
